Biological target: T1, Kv1.3 potassium channel (Homo sapiens, UniProt P22001)
T1 construct: expressed in transfected cells
Assay: Kv1.3 potassium channel blocker activity, automated whole-cell patch clamp (Patchliner)
Type: cell-based
Settings: CHO-K1 cells stably expressing Kv1.3; 100 ms pulses from -90 mV to +40 mV, 0.1 Hz
Method: This assay is used to evaluate the disclosed compounds' activities as Kv1.3 potassium channel blockers.
CHO-K1 cells stably expressing Kv1.3 were grown in DMEM containing 10% heat-inactivated FBS, 1 mM sodium pyruvate, 2 mM L-glutamine and G418 (500 μg/ml). Cells were grown in culture flasks at 37° C. in a 5% CO2-humidified incubator.
The cells were bathed in an extracellular solution containing 140 mM NaCl, 4 mM KCl, 2 mM CaCl2), 1 mM MgCl2, 5 mM glucose, and 10 mM HEPES; pH adjusted to 7.4 with NaOH; 295-305 mOsm. The internal solution contained 50 mM KCl, 10 mM NaCl, 60 mM KF, 20 mM EGTA, and 10 mM HEPES; pH adjusted to 7.2 with KOH; 285 mOsm. All compounds were dissolved in DMSO at 30 mM. Compound stock solutions were freshly diluted with external solution to concentrations of 30 nM, 100 nM, 300 nM, 1 μM, 3 μM, 10 μM, 30 μM and 100 μM. The highest content of DMSO (0.3%) was present in 100 μM.
The currents were evoked by applying 100 ms depolarizing pulses from −90 mV (holding potential) to +40 mV were applied with 0.1 Hz frequency. Control (compound-free) and compound pulse trains for each compound concentration applied contained 20 pulses.
10-second breaks were used between pulse trains (see Table 2 below).
Whole-cell current recordings and compound application were enabled by means of an automated patch clamp platform Patchliner (Nanion Technologies GmbH). EPC 10 patch clamp amplifier (HEKA Elektronik Dr. Schulze GmbH) along with Patchmaster software (HEKA Elektronik Dr. Schulze GmbH) was used for data acquisition. Data were sampled at 10 kHz without filtering. Passive leak currents were subtracted online using a P/4 procedure (HEKA Elektronik Dr. Schulze GmbH). Increasing compound concentrations were applied consecutively to the same cell without washouts in between. Total compound incubation time before the next pulse train was not longer than 10 seconds. Peak current inhibition was observed during compound equilibration.
AUC and peak values were obtained with Patchmaster (HEKA Elektronik Dr. Schulze GmbH). To determine IC50, the last single pulse in the pulse train corresponding to a given compound concentration was used. Obtained AUC and peak values in the presence of compound were normalized to control values in the absence of compound. Using Origin (OridinLab), IC50 was derived from data fit to Hill equation: Icompound/Icontrol=(100−A)/(1+([compound]/IC50)nH)+A, where IC50 value is the concentration at which current inhibition is half-maximal, [compound] is the applied compound concentration, A is the fraction of current that is not blocked and nH is the Hill coefficient.

T1 sequence (P22001 whole entry): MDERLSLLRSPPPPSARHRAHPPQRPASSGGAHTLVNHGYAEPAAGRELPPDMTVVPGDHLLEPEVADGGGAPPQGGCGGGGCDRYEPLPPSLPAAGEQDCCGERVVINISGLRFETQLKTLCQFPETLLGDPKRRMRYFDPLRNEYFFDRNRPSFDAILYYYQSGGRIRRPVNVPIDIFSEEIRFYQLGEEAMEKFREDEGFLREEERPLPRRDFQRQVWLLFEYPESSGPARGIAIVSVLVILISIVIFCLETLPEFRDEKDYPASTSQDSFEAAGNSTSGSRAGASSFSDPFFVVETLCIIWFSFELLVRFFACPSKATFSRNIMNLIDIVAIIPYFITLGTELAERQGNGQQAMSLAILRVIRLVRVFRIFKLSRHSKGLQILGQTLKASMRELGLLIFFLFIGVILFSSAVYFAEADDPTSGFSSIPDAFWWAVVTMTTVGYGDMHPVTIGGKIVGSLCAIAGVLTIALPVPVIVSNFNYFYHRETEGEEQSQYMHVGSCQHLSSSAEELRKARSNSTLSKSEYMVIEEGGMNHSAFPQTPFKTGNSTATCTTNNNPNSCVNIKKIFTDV

Structure (SMILES)	IC50 [nM]
O=C(CO)N1CC(=O)N2C[C@H](c3c(O)ccc(Cl)c3Cl)CC[C@H]2C1 (relative stereo) [Compound 13, (7S,9aS)-rel-7-(2,3-dichloro-6-hydroxyphenyl)-2-(2-hydroxyacetyl)-hexahydro-1H-pyrido[1,2-a]pyrazin-4-one]	< 1000
O=C(CO)N1CC(=O)N2C[C@H](c3c(O)ccc(Cl)c3Cl)CC[C@@H]2C1 (relative stereo) [Compound 26, (7S,9aR)-rel-7-(2,3-dichloro-6-hydroxyphenyl)-2-(2-hydroxyacetyl)-hexahydro-1H-pyrido[1,2-a]pyrazin-4-one]	< 10000
O=C1[C@H](CO)OC[C@@H]2C[C@H](c3c(O)ccc(Cl)c3Cl)CCN12 (single isomer, unassigned) [Compound 43]	< 1000
C[C@@H](CO)C(=O)N1CC(=O)N2CC[C@H](c3c(O)ccc(Cl)c3Cl)C[C@@H]2C1 [Compound 3, (8S,9aR)-8-(2,3-dichloro-6-hydroxyphenyl)-2-((S)-3-hydroxy-2-methylpropanoyl)octahydro-4H-pyrido[1,2-a]pyrazin-4-one]	< 1000
O=C(CO)N1CC(=O)N2CC[C@H](c3c(O)cc(Cl)c(Cl)c3Cl)C[C@@H]2C1 [Compound 5, (8S,9aR)-2-(2-hydroxyacetyl)-8-(2,3,4-trichloro-6-hydroxyphenyl)-hexahydro-1H-pyrido[1,2-a]pyrazin-4-one]	< 1000
O=C1N[C@H](CO)CN2CC[C@@H](c3c(O)ccc(Cl)c3Cl)C[C@@H]12 [Compound 6, (3S,8R,9aS)-8-(2,3-dichloro-6-hydroxyphenyl)-3-(hydroxymethyl)-octahydropyrido[1,2-a]pyrazin-1-one]	< 10000
C[C@@H]1C(=O)N2CC[C@@H](c3c(O)ccc(Cl)c3Cl)C[C@H]2CN1C(=O)CO [Compound 12, (3R,8R,9aS)-8-(2,3-dichloro-6-hydroxyphenyl)-2-(2-hydroxyacetyl)-3-methyloctahydro-4H-pyrido[1,2-a]pyrazin-4-one]	< 10000
O=C1N[C@H](CO)CN2CC[C@H](c3c(O)ccc(Cl)c3Cl)C[C@H]12 [Compound 19, (3S,8S,9aR)-8-(2,3-dichloro-6-hydroxyphenyl)-3-(hydroxymethyl)-octahydropyrido[1,2-a]pyrazin-1-one]	< 10000
C[C@H](CO)C(=O)N1CC(=O)N2CC[C@H](c3c(O)ccc(Cl)c3Cl)C[C@@H]2C1 [Compound 20, (8S,9aR)-8-(2,3-dichloro-6-hydroxyphenyl)-2-((R)-3-hydroxy-2-methylpropanoyl)octahydro-4H-pyrido[1,2-a]pyrazin-4-one]	< 1000
CN(C)C(=O)N1CC(=O)N2C[C@@H](c3c(O)ccc(Cl)c3Cl)C[C@H]2C1 [Compound 30, (7R,8aS)-7-(2,3-dichloro-6-hydroxyphenyl)-N,N-dimethyl-4-oxohexahydropyrrolo[1,2-a]pyrazine-2(1H)-carboxamide]	< 1000
CC(C)(O)C(=O)N1CC(=O)N2CC[C@@H](c3c(O)ccc(Cl)c3Cl)C[C@H]2C1 [Compound 31, (8R,9aS)-8-(2,3-dichloro-6-hydroxyphenyl)-2-(2-hydroxy-2-methylpropanoyl)octahydro-4H-pyrido[1,2-a]pyrazin-4-one]	< 1000
O=C1[C@@H](CO)NC[C@H]2C[C@@H](c3c(O)ccc(Cl)c3Cl)CCN12 [Compound 36, (3R,8S,9aR)-8-(2,3-dichloro-6-hydroxyphenyl)-3-(hydroxymethyl)-octahydropyrido[1,2-a]pyrazin-4-one]	< 1000
O=C1CNC[C@H]2C[C@@H](c3c(O)ccc(Cl)c3Cl)CCN12 [Compound 39]	< 1000
O=C(CO)N1CC(=O)N2CC[C@H](c3c(O)ccc(Cl)c3Cl)C[C@@H]2C1 [Compound 48, (8S,9aR)-8-(2,3-dichloro-6-hydroxyphenyl)-2-(2-hydroxyacetyl)-hexahydro-1H-pyrido[1,2-a]pyrazin-4-one]	< 1000
O=C([C@@H](O)CO)N1CC(=O)N2CC[C@H](c3c(O)ccc(Cl)c3Cl)C[C@@H]2C1 [Compound 51, (8S,9aR)-8-(2,3-dichloro-6-hydroxyphenyl)-2-[(2S)-2,3-dihydroxypropanoyl]-hexahydro-1H-pyrido[1,2-a]pyrazin-4-one]	< 1000
C[C@@H](O)CC(=O)N1CC(=O)N2C[C@@H](c3c(O)ccc(Cl)c3Cl)C[C@H]2C1 [Compound 53, (7R,8aS)-7-(2,3-dichloro-6-hydroxyphenyl)-2-[(3R)-3-hydroxybutanoyl]-hexahydropyrrolo[1,2-a]pyrazin-4-one]	< 1000

Same assay, conditions: Kv1.3 potassium channel, whole-cell patch clamp

Structure (SMILES)	IC50 [nM]
O=C1CN(C2CC[C@H](O)[C@@H]2O)C[C@@H]2C[C@H](c3c(O)ccc(Cl)c3Cl)CN12 (relative stereo) [Compound 135, (7R,8aS)-7-(2,3-dichloro-6-hydroxyphenyl)-2-[(2R,3S)-rel-2,3-dihydroxycyclopentyl]-hexahydropyrrolo [1,2-a]pyrazin-4-one]	< 1000
O=C1C[C@@H](O)[C@@H](O)[C@@H]2C[C@H](c3c(O)ccc(Cl)c3Cl)CN12 (relative stereo) [Compound 224, (7R,8S)-rel-(2R, 8aS)-2-(2,3-dichloro-6-hydroxyphenyl)-7,8-dihydroxy-hexahydro-1H-indolizin-5-one]	< 1000
O=C1C[C@@H](c2cc[nH]n2)C[C@@H]2C[C@H](c3c(O)ccc(Cl)c3Cl)CN12 (single isomer, unassigned) [Compound 213]	< 1000
O=C1C[C@H](c2cc[nH]n2)C[C@@H]2C[C@H](c3c(O)ccc(Cl)c3Cl)CN12 (single isomer, unassigned) [Compound 214]	< 10000
O=C1CC[C@@H](O)[C@@H]2C[C@H](c3c(O)ccc(Cl)c3Cl)CN12 (single isomer, unassigned) [Compound 227]	< 1000
N#C[C@@H]1CC(=O)N2C[C@@H](c3c(O)ccc(Cl)c3Cl)C[C@H]2C1 (single isomer, unassigned) [Compound 228]	< 1000
NC(=O)[C@@H]1CC(=O)N2C[C@@H](c3c(O)ccc(Cl)c3Cl)C[C@H]2C1 (single isomer, unassigned) [Compound 230]	< 1000
O=C(NCCO)[C@H]1CC(=O)N2C[C@@H](c3c(O)ccc(Cl)c3Cl)C[C@H]2C1 (single isomer, unassigned) [Compound 233]	< 1000
O=C1[C@@H](O)C[C@@H]2C[C@H](c3c(O)ccc(Cl)c3Cl)CN12 (single isomer, unassigned) [Compound 245]	< 1000
O=C1[C@H](O)C[C@@H]2C[C@H](c3c(O)ccc(Cl)c3Cl)CN12 (single isomer, unassigned) [Compound 246]	< 1000
N[C@@H]1C[C@@H]2C[C@H](c3c(O)ccc(Cl)c3Cl)CN2C1=O (single isomer, unassigned) [Compound 249]	< 1000
CC(C)(O)[C@H]1OC(=O)N2C[C@@H](c3c(O)ccc(Cl)c3Cl)C[C@@H]12 (single isomer, unassigned) [Compound 255]	< 1000
C[C@@H]1[C@@H]2C[C@H](c3c(O)ccc(Cl)c3Cl)CCN2C(=O)CN1C(=O)CO (single isomer, unassigned; isomer 1) [Compound 83]	< 10000
C[C@@H]1[C@@H]2C[C@H](c3c(O)ccc(Cl)c3Cl)CN2C(=O)CN1C(=O)CO (single isomer, unassigned; isomer 1) [Compound 87]	< 1000
